{"source": "paper PMC11542736", "about": "(Cell reports. Physical science, 2024)", "target": "TrpR^WT (Escherichia coli, UniProt P0A881)", "assay": "Ptrp-GFP reporter, flow cytometry", "type": "cell-based", "settings": "1 mM ligand, E. coli Nissle 1917 trpR knockout, 37 °C, 8 h; derepression", "data": [{"compound": "O=C(O)Cc1c[nH]c2ccccc12", "note": "[IAA, indole-3-acetic acid]", "values": [{"measurement": "Ptrp-GFP reporter, flow cytometry", "result": "IPA, IAA, and IAld"}]}]}
